Assay results: patent publication US20240327709A1, “NON-LAMELLAR LIQUID CRYSTAL-FORMING COMPOSITION AND USE THEREOF” (FARNEX INCORPORATED, priority 2021, published 2024)

What was measured:
[1] = Gel formation test with water; type: physicochemical; details: amphiphilic compound mixed with water alone, no phospholipid
Protocol: (§1) The precursor formulations Nos. 1 to 23 were subjected to gel formation test. A portion (about 100 to 300 mg) of each precursor formulation was added to an excess amount (about 0.5 to 2 mL) of water for injection in a vial, and the whole was mixed at room temperature (25° C.) with a spatula and/or a vortex mixer.
The precursor formulations Nos. 26 to 31 were subjected to gel formation test in a similar manner to that in Example 2.
as §1, with “Nos. 36” for “Nos. 1”, “to 40” for “to 23”

[2] = SAXS liquid crystal structure analysis of gel compositions; type: physicochemical; details: amphiphilic compound mixed with water alone
Source text: The gel compositions formed from the precursor formulations Nos. 1 to 23 were each directly embedded in a pinhole slit and subjected to small-angle X-ray scattering diffractometry with a small-angle x-ray scattering (SAXS) apparatus (manufactured by Rigaku Corp., Nano-Viewer) to analyze the non-lamellar liquid crystal structure.
The obtained liquid crystal phases and scattering vector values q1 [nm^−1] of peaks located at the smallest angle are shown in Tables 1 and 2. […] There were some gel compositions having two types of different liquid crystal phases.

gel composition formation [1] | liquid crystal phase [2] | q1 [2] [nm⁻¹] | SMILES
failed to form a gel composition | – | – | CCCCC/C=C\C/C=C\CCCCCCCC(=O)OCCC(C)(C)O [3-methyl-1,3-butanediol monolinoleate]
formed a gel composition | HII | 1.35 | CCCCCCCC/C=C\CCCCCCCC(=O)OCCOCCO [diethylene glycol monooleate, Diethylene glycol monooleate]
failed to form a gel composition | – | – | CCCCC/C=C\C/C=C\CCCCCCCC(=O)OCCC(C)O (stereo not drawn) [1,3-Butylene glycol monolinoleate]
failed to form a gel composition | – | – | CCCCC/C=C\C/C=C\CCCCCCCC(=O)OC1COC2C(O)COC12 (stereo not drawn) [isosorbide monolinoleate]
